Non-standard residues stand in square brackets, D forms with d. Nle = CCCC[C@H](N)C(=O)O

The target of one experiment is T1, wild-type human melanocortin 4 receptor (WT-hMC4R) (Homo sapiens, UniProt P32245).
T1 construct: expressed in transfected cells
T1 sequence (P32245 whole entry): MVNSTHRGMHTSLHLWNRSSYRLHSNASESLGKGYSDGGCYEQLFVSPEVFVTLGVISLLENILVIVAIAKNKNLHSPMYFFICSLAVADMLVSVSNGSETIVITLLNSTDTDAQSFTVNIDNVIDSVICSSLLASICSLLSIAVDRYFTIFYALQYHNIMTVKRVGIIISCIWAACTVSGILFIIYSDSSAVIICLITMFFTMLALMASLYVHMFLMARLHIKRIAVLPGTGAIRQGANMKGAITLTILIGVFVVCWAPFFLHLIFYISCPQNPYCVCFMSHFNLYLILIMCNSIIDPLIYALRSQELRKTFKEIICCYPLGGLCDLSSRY
Nature of the experiment: Cyclic AMP assay (HTRF), antagonist competition against NDP-α-MSH. Type of experiment: cell-based. Conditions: HEK293T cells stably expressing WT-hMC4R; inhibition of response to 4 nM NDP-α-MSH; cAMP. On the procedure: The general procedures described above were used to prepare the examples described below. Reported HPLC retention time are for reverse-phase HPLC (Agilent, 1200 series) using the conditions reported above (See “General” section). Mass spectra were recorded on a 6210 G1969A LC/MSD TOF spectrometer from Agilent Technologies using the LC conditions reported above (See “General” section). IC50 values were obtained using the cAMP assay described below.
IC50 value is the half maximal concentration of the tested compound to inhibit half of the maximal response of the agonist NDP-α-MSH. It is a measurement of the antagonist compound potency.
Intracellular cyclic 3′-5′ adenosine monophosphate (cAMP) accumulation was measured using a competitive immunoassay based on HTRF (Homogeneous Time-Resolved Fluorescence) technology (cAMP dynamic-2, Cis-Bio).
HEK293T stable cell line expressing double-tagged WT-hMC4R construct were collected and washed in cAMP buffer (1×D-PBS pH 7.4, 0.1% glucose). 40,000 cells/well were then dispensed in 96-well plates in cAMP buffer [1×D-PBS, 1% BSA, 0.1% Glucose, 0.75 mM 3-isobutyl-1-methyl-xanthine (IBMX, Sigma)] and incubated either for antagonist competition assay: 1 hour at 37° C. with various concentrations of compound [0.01 nM-10 μM] followed by 30 min incubation at 37° C. with 4 nM of NDP-α-MSH (Sigma) or for agonist assay: 1 hour at 37° C. with various concentrations of compound [0.01 nM-10 μM]. 10,000 cells were transferred in 384-well plates, lysed and incubated with cAMP labeled with the dye d2 and anti-cAMP M-Antidody labeled with Cryptate following the manufacturer's protocol.
Reading of HTRF signal was performed on Artemis TR-FRET plate reader (Cosmo Bio).
All curve fitting was conducted using non-linear regression analyses from PRISM (version 4.0c, GraphPad Inc.) and the determination of Rmax and EC50 or IC50 parameters were obtained from sigmoidal dose-response phase (variable slope) equation.
A cDNA encoding a wild-type human MC4R with a 3 tandem copies of Hemaglutinine (HA) epitote sequence from UMR cDNA resource center was modified using known techniques in the art (e.g., PCR, cloning) to fused in frame at the C-terminal a venus-Yellow Fluorescent Protein (YFP) cDNA.
The resultant cDNA was then subcloned in eukaryotic expression vector, e.g. pcDNA 3.1(+) (Invitrogen).
The double tagged WT-hMC4R was transfected in HEK293T cells with lipofectamine (Invitrogen) following the manufacturer's instructions and permanently transfected clonal cell lines were selected by resistance to the neomycin analog G418.
HEK293T stable cell line expressing wild-type human melanocortin 4 receptor (WT-hMC4R) containing an N-terminal 3×HA epitope tag and an intracellular C-terminal venus-yellow fluorescent protein (v-YFP) were maintained at 37° C. in humidified air containing 5% CO2 in Dulbecoo's modified Eagle's medium (DMEM) supplemented with 10% fetal bovine serum (FBS), 100 U/ml penicillin/streptomycin (DMEM complete/10% FBS). Cells were generally at 70%-80% confluence on the day of assay.
For orientation: In TR-FRET formats the signal depends on donor and acceptor labels being close together.
Regarding `CCCCN(CCCC)C(=O)c1ccc2nc(-c3cccc(C#N)c3)n(CCCN3CCCCC3)c2n1` [Cpd 4, N,N-dibutyl-2-(3-cyanophenyl)-3-(3-(piperidin-1-yl)propyl)-3H-imidazo[4,5-b]pyridine-5-carboxamide], the IC50 – broadly, the midpoint of a concentration-inhibition curve – was in the range of 1000 to 15000 nM.
On the same count and under the same terms, for `COC(=O)c1ccc(Nc2nc3ccc(C(=O)N(CCC(C)C)CCC(C)C)nc3n2CCCN2CCCCC2)cc1` [Cpd 71] the value was less than 100 nM; for `CC(=O)c1ccc(Nc2nc3ccc(C(=O)N(CCC(C)C)CCC(C)C)nc3n2CCCN2CCCCC2)cc1` [Cpd 68], less than 100 nM.
On the same count and under the same terms, for `COCCN(CCOC)C(=O)c1ccc2nc(Nc3ccc(OC)cc3)n(CCCN3CCCCC3)c2n1` [Cpd 17] the value was 1000 to 15000 nM; for `CCN(CCOC)C(=O)c1ccc2nc(Nc3ccc(OC)cc3)n(CCCN3CCCCC3)c2n1` [Cpd 7], 1000 to 15000 nM; for `CCCCN(CCCC)C(=O)c1ccc2nc(Nc3ccc(OC)cc3)n(C3CCN(Cc4ccccc4)CC3)c2n1` [Cpd 26], 1000 to 15000 nM.
Same read-out and setting: for `CCCCN(CCCC)C(=O)c1ccc2nc(Nc3ccccc3Br)n(CCCN3CCCCC3)c2n1` [Cpd 11] the value was 1000 to 15000 nM; for `COc1ccc(-c2nc3ccc(C(=O)N(CCC(C)C)CCC(C)C)nc3n2CCCN2CCCCC2)cc1` [Cpd 72], 100 to 1000 nM; for `CCCCN(CCCC)C(=O)c1ccc2nc(Oc3ccc(OC)cc3)n(CCCN3CCCCC3)c2n1` [Cpd 62], 100 to 1000 nM.
Consider `CCCCN(CCCC)C(=O)c1ccc2nc(Nc3ccc(C(=O)N(C)C)cc3)n(CCCN3CCCCC3)c2n1` [Cpd 56], for which the IC50 is 100 to 1000 nM.
Same read-out and setting: for `COc1ccc(-c2nc3cnc(C(=O)N(CCC(C)C)CCC(C)C)nc3n2CCCN2CCCCC2)cc1` [Cpd 54] the value was 100 to 1000 nM.
Same read-out and setting: for `CCCCCN(CCCCC)C(=O)c1ccc2nc(Nc3ccc(OC)cc3)n(CCCN3CCCCC3)c2n1` [Cpd 14] the value was less than 100 nM; for `CCCCN(CCCC)C(=O)c1nc(O)c2nc(-c3ccc(OC)cc3)n(CCCN3CCCCC3)c2n1` [Cpd 47], 100 to 1000 nM.
Same read-out and setting: for `CC(C)CCN(CCC(C)C)C(=O)c1ccc2nc(NCc3ccc4c(c3)OCO4)n(CCCN3CCOCC3)c2n1` [Cpd 76] the value was 100 to 1000 nM; for `CCCCN(CCCC)Cc1ccc2nc(Nc3ccc(OC)cc3)n(CCCN3CCCCC3C)c2n1` (centres unmarked) [Cpd 28], 1000 to 15000 nM; for `CCCCN(CCCC)C(=O)c1cc2c(cn1)nc(Nc1ccc(C)cc1)n2CCCN1CCCCC1` [Cpd 53], 100 to 1000 nM.
In turn, `CCCCN(CCCC)C(=O)c1cnc2nc(Nc3ccc(OC)cc3)n(CCCN3CCCCC3)c2n1` [Cpd 50] yielded an IC50 of 100 to 1000 nM.
On the same count and under the same terms, for `CCCCN(CCCC)C(=O)c1cc2c(cn1)nc(Nc1ccc(OC)cc1)n2CCCN1CCCCC1` [Cpd 31] the value was 100 to 1000 nM.
For `CC(C)CCN(CCC(C)C)C(=O)c1ccc2nc(-c3ccc4c(c3)OCO4)n(CCCN3CCCCC3)c2n1` [Cpd 73], the IC50 fell in the range of 100 to 1000 nM.
Still for that read-out and setting: for `CCCCN(CCCC)C(=O)c1ccc2nc(C)n(CCCN3CCCCC3)c2n1` [Cpd 3, N,N-dibutyl-2-methyl-3-(3-(piperidin-1-yl)propyl)-3H-imidazo[4,5-b]pyridine-5-carboxamide] the value was 1000 to 15000 nM; for `CCCCN(CCCC)C(=O)c1ccc2nc(Nc3ccc(C(=O)N4CCCCC4)cc3)n(CCCN3CCCCC3)c2n1` [Cpd 57], 100 to 1000 nM; for `CCCCN(CCCC)C(=O)c1ccc2nc(NC(=O)c3ccccc3)n(CCCN3CCCCC3)c2n1` [Cpd 9], 1000 to 15000 nM.
Same read-out and setting: for `CCCCN(CCCC)C(=O)c1ccc2nc(Nc3ccc(OC)cc3)n(CCCN3CCCCC3C)c2n1` (centres unmarked) [Cpd 18] the value was less than 100 nM.
For `CCCCN(CCCC)C(=O)c1ccc2nc(-c3ccc(Br)cc3)n(CCCN3CCCCC3)c2n1` [Cpd 43], the IC50 lay within 1000 to 15000 nM.
The same measure, in the same setting: for `COc1ccc(Nc2nc3ccc(C(=O)N4CCCC5CCCCC54)nc3n2CCCN2CCCCC2)cc1` (centres unmarked) [Cpd 23] the value was 1000 to 15000 nM.

Another experiment deals with MC4R as compared to the MC5R.
Test: not given
Conditions: Nijenhuis et al. Peptides 2003; cited from earlier work.
With “Ac-Nle-Gly-Lys-D-Phe-Arg-Trp-Gly-NH(2) (Ac-[Nle]GK[dF]RWG-NH2; SMILES CCCC[C@H](NC(C)=O)C(=O)NCC(=O)N[C@@H](CCCCN)C(=O)N[C@H](Cc1ccccc1)C(=O)N[C@@H](CCCNC(=N)N)C(=O)N[C@@H](Cc1c[nH]c2ccccc12)C(=O)NCC(N)=O)”, the “selectivity for the MC4R as compared to the MC5R (MC4R/MC5R)” value is given as 110 fold.
For the compound “Ac-Nle-Gly-Lys-D-NaI(2)-Arg-Trp-Gly-NH(2)”, the “selectivity for the MC4R as compared to the MC5R (MC4R/MC5R)” value is listed as 109 fold.

In the next experiment the test system is MC4R as compared to the MC3R.
Test: not given
Conditions: Nijenhuis et al. 2003; Sutton et al. 2008; cited from earlier work.
As to “Ac-Nle-Gly-Lys-D-Phe-Arg-Trp-Gly-NH(2) (Ac-[Nle]GK[dF]RWG-NH2; SMILES CCCC[C@H](NC(C)=O)C(=O)NCC(=O)N[C@@H](CCCCN)C(=O)N[C@H](Cc1ccccc1)C(=O)N[C@@H](CCCNC(=N)N)C(=O)N[C@@H](Cc1c[nH]c2ccccc12)C(=O)NCC(N)=O)”, the “selectivity for the MC4R as compared to the MC3R (MC4R/MC3R)” value is 90 fold.
On to “Ac-Nle-Gly-Lys-D-NaI(2)-Arg-Trp-Gly-NH(2)”, for which the “selectivity for the MC4R as compared to the MC3R (MC4R/MC3R)” value is given as 34 fold.

The values above are taken from patent publication US20130165426A1, “IMIDAZOPYRIDINE, IMIDAZOPYRIMIDINE AND IMIDAZOPYRAZINE DERIVATIVES AS MELANOCORTIN-4 RECEPTOR MODULATORS” (UNIVERSITÉ DE MONTRÉAL, priority 2010, published 2013).
